{
  "source": "patent US8557823B2",
  "about": "“Family of PFKFB3 inhibitors with anti-neoplastic activities” (Advanced Cancer Therapeutics, LLC, priority 2007, dated 2013)",
  "key": {"K562 leukemia cells": {"system": "K562 leukemia cells", "test": "In vitro growth inhibition, K562", "format": "cell-based, human", "settings": "Homo sapiens, 50% of vehicle control cell growth", "description": "(§1) The K562, HL-60, MDA-MB231, and melanoma (CRL-11174) human cancer cell lines were purchased from ATCC (American Tissue Type Culture Collection, Manassas, Va., United States of America). HeLa, A549, Lewis Lung Carcinoma, MDA-MB231, and melanoma cells were grown in Dulbecco's Modified Eagle Medium (DMEM) (Hyclone, Logan, Utah, United States of America) supplemented with 10% fetal bovine serum (Hyclone, Logan, Utah, United States of America) and 50 μg/mL gentamicin sulfate (Invitrogen, Carlsbad, Calif., United States of America). The HL-60, K562, and Jurkat cell lines were grown in RPMI-1640 medium (Hyclone, Logan, Utah, United States of America) supplemented with 10% fetal bovine serum and 50 μg/mL gentamicin sulfate. […]\n(§2) Cells were collected 48 hours post-treatment, and cell number and viability were determined by trypan blue exclusion. […]"}, "Jurkat leukemia cells": {"system": "Jurkat leukemia cells", "test": "In vitro growth inhibition, Jurkat", "format": "cell-based", "settings": "Homo sapiens, 50% of vehicle control cell growth", "description": "as §1, §2"}, "HL-60 leukemia cells": {"system": "HL-60 leukemia cells", "test": "In vitro growth inhibition, HL-60", "format": "cell-based, human", "settings": "Homo sapiens, 50% of vehicle control cell growth", "description": "as §1, §2"}, "[1]": {"system": "HeLa cervical cancer cells", "test": "In vitro growth inhibition, HeLa", "format": "cell-based", "settings": "Homo sapiens", "description": "as §1, §2"}, "[2]": {"system": "melanoma (CRL-11174) cells", "test": "In vitro growth inhibition, melanoma line", "format": "cell-based", "settings": "Homo sapiens", "description": "as §1, §2"}, "[3]": {"system": "PFKFB3+/- ht/LT/ras fibroblasts", "test": "Growth inhibition of PFKFB3 haplo-insufficient transformed fibroblasts", "format": "cell-based, mice", "settings": "Mus musculus, Fibroblast, 48 hours", "excerpt": "(§3) FIG. 6B is a bar graph showing the anti-proliferative effects of 3PO in fibroblasts from wild-type (+/+) or haplo-insufficient (+/−) PFKFB3 mice which were subsequently immortalized and transformed with human telomerase (ht), large T antigen (LT), and oncogenic H-ras^v12. Cell numbers (expressed as % of cell numbers of control cells) for transformed wild type (+/+) cells are shown in solid bars and numbers for transformed haplo-insufficient (+/−) cells are shown in striped bars. As indicated at the bottom of the graph, cells were incubated with vehicle or increasing amounts of 3PO (5, 10, 20, 30, 40, or 60 μM). Viable cells were counted after 48 hours. The bars represent the mean±STD of triplicate values from a representative experiment. * p-value<0.01 represents statistical difference between vehicle control and 3PO treated samples.\n(§4) Cells were collected 48 hours post-treatment, and cell number and viability were determined by trypan blue exclusion. IC50 values were calculated as the compound 1 concentration needed for 50% of vehicle treated cell growth.\n(§5) One of the most difficult challenges of new anti-neoplastic therapies is in situ target validation. To address this question, two different cell lines with varying levels of PFKFB3 expression were studied. […]"}, "[4]": {"system": "+/+ ht/LT/ras fibroblasts", "test": "Growth inhibition of wild-type transformed fibroblasts", "format": "cell-based, mice", "settings": "Mus musculus, Fibroblast, 48 hours", "excerpt": "as §3, §4, §5"}, "[5]": {"system": "Jurkat cells expressing unaltered PFKFB3 levels", "test": "Growth inhibition of control Jurkat cells (empty vector, doxycycline)", "format": "cell-based", "settings": "Homo sapiens, 48 hours", "description": "FIG. 6D is a bar graph showing the anti-proliferative effects of 3PO in Jurkat cells engineered to over-express PFKFB3 through doxycylin treatment utilizing the Tet-on system (+PFKFB3, striped bars). Twenty-four hours prior to 3PO treatment, 1 μg/mL of doxycyclin is incubated with Jurkat cells containing a PFKFB3-expressing vector in order to induce PFKFB3 protein levels. Control cells (−PFKFB3, solid bars) containing an empty vector were similarly treated with doxycyclin and served as background PFKFB3 expression. Both cell types were subsequently incubated with increasing concentrations of 3PO (1, 3, 10, or 33 μM) or vehicle (V), and viable cells were analyzed after 48 hours. The bars represent the mean±STD of triplicate values from a representative experiment.\nAll cell lines were plated at 1×10^5 cells/well in the appropriate medium. For suspension cells, increasing concentrations of 1 were added immediately to the medium, whereas, compound 1 treatment was initiated the following day for adherent cell lines. For dose-dependent studies, compound 1 was added in increasing concentrations for 36 hours. For time-dependent studies, 10 μM of compound 1 was added at time 0, 4, 8, 16, 24, or 36 hours. […]\nas §2"}, "[6]": {"system": "Lewis Lung Carcinoma xenografts", "test": "F2,6BP in Lewis lung carcinoma tumor xenografts", "format": "in vivo, mice", "settings": "0.07 mg/g i.p., four hours post-injection", "description": "C57Bl/6 female mice (20 g) were injected subcutaneously with 1×10^6 Lewis lung carcinoma cells. When the xenografts were measured to have a mass of between 150 and 180 mg, the mice were split into two groups. One group was injected i.p. with 0.07 mg/g of compound 1. The other group was used as a control and injected i.p. with 50 μL DMSO. Four hours post-injection, tumors were removed and homogenized in equal volumes of 0.1 M and 0.05 M NaOH. F2,6BP assays were performed as previously described. See Van Shaftingen et al., Eur. J. Biochem, 129, 191-195 (1982). […] F2,6BP concentration in the compound 1-treated mouse xenografts was 8.5±1.7 pmol/mg, while in the control mouse xenografts' F2,6BP concentration was 13.1±1.9 pmol/mg."}, "[7]": {"test": "Echocardiographic examination of cardiac function", "format": "in vivo", "settings": "compound-treated mice, 0.07 mg/g i.p.", "description": "A difference in cardiac ^18F-2-DG uptake was also observed between the compound 1-treated and control group mice. Echocardiograms were performed as described in Dawn et al., Proc. Natl. Acad. Aci., U.S.A., 102, 3766-3771 (2005). […] Overall, it appears that 1 targets PFK2 activity in vivo resulting in a reduced glycolytic phenotype."}},
  "data": [
    {"smiles": "O=C(/C=C/c1cccnc1)c1ccncc1", "note": "[Compound 1, 3-(3-pyridinyl)-1-(4-pyridinyl)-2-propen-1-one]", "values": [
      {"measurement": "IC50", "setting": "K562 leukemia cells", "value": 3.2, "unit": "µM"},
      {"measurement": "IC50", "setting": "Jurkat leukemia cells", "value": 1.4, "unit": "µM"},
      {"measurement": "IC50", "setting": "HL-60 leukemia cells", "value": 4.5, "unit": "µM"},
      {"measurement": "IC50", "setting": "[1]", "value": 24, "unit": "µM"},
      {"measurement": "IC50", "setting": "[2]", "value": 15, "unit": "µM"},
      {"measurement": "IC50", "setting": "[3]", "value": 26, "unit": "µM"},
      {"measurement": "IC50", "setting": "[4]", "value": 49, "unit": "µM"},
      {"measurement": "IC50", "setting": "[5]", "value": 8.9, "unit": "µM"},
      {"measurement": "F2,6BP concentration in tumor xenografts", "setting": "[6]", "value": "8.5 ± 1.7", "unit": "pmol/mg"},
      {"measurement": "ejection fraction", "setting": "[7]", "value": "71%±6%"}
    ]}
  ]
}
